Measurements from the SangsterLogP compilation.

Experiment: method code SF-AS, from DOI: 10.1002/zfch.19810210618

logP | SMILES
0.96 | NNC(=O)Nc1cccc(Br)c1
0.17 | COc1cccc(NC(=O)NN)c1
0.66 | NNC(=O)Nc1ccccc1Br
-0.16 | NNC(=O)Nc1cccc(C(=O)O)c1
0.16 | NNC(=O)Nc1ccccc1
0.17 | COc1ccc(NC(=O)NN)cc1
0.87 | NNC(=O)Nc1ccc(Cl)cc1
0.9 | NNC(=O)Nc1cccc2ccccc12
-0.55 | NNC(=O)Nc1ccc(O)cc1
-0.47 | NNC(=O)Nc1ccccc1[N+](=O)[O-]
0.45 | NNC(=O)Nc1ccccc1Cl
1.24 | NNC(=O)Nc1ccc(I)cc1
-0.49 | NNC(=O)Nc1ccccc1C(=O)O
0.83 | NNC(=O)Nc1cccc(Cl)c1
1 | NNC(=O)Nc1ccc(Br)cc1
-0.18 | NNC(=O)Nc1ccc([N+](=O)[O-])cc1
0.33 | NNC(=O)Nc1ccccc1O
0.36 | Cc1ccccc1NC(=O)NN
-0.5 | NNC(=O)Nc1cccc(O)c1
0.69 | Cc1ccc(NC(=O)NN)cc1
0.68 | Cc1cccc(NC(=O)NN)c1
1.07 | NNC(=O)Nc1cc(Cl)ccc1Cl
-0.21 | NNC(=O)Nc1ccc(C(=O)O)cc1
0.53 | CCOc1ccc(NC(=O)NN)cc1
-0.15 | COc1ccccc1NC(=O)NN
-0.13 | NNC(=O)Nc1cccc([N+](=O)[O-])c1
